Tests used:
PANC-1 spheroids = test: 3D spheroid cell viability assay; type: cell-based; details: Homo sapiens, 3D spheroids, CellTiter-Glo 3D, 72-h treatment, read-out: IC50 PANC-1 (3D model)
Method: (§1) The HCT 116 cell lines, AsPC-1, PANC-1 (5,000), and U-251 cells (8,000) in 100 µL of medium were seeded in 96-well ULA Corning spheroid microplates (Sigma-Aldrich) and incubated for 72 h at 37 °C to form spheroids. The medium from each well was then gently removed and freshly prepared solutions of 13 were added. The treated spheroids were incubated for the next 72-h. Afterward, cell viability assays were performed using CellTiter-Glo 3D Reagent (Promega) according to the manufacturer’s protocol. Briefly, CellTiter-Glo 3D Reagent was added in equal volume to the medium in each well. The plate was vigorously mixed for 5 min and then incubated for 25 min at room temperature. The luminescence was measured using a multiplate reader (Synergy 4, BioTek). The experiment for each sample was performed at least three times. The results from the assay are presented as IC50 values, which were calculated using GraphPad Prism v.8.0 (USA).
(§2) To confirm the cytotoxicity ranking, the viability of the cells was also estimated on a 3D spheroid model, which better represented a solid tumour. […] The cell lines that represented pancreatic cancer were less responsive to derivative 13, which was similar to the 2D model. […] However, the activity of derivative 13 was confirmed on the 3D model that reflected a real tumour, which is undoubtedly a positive result and a reason for further, more in-depth studies to clarify the mechanism of action of the 4-furanylvinylquinoline derivative 13.

U-251 spheroids = test: 3D spheroid cell viability assay; type: cell-based; details: Homo sapiens, 3D spheroids, CellTiter-Glo 3D, 72-h treatment, read-out: IC50 U-251 (3D model)
Method: as §1, §2

HCT 116 p53-/- spheroids = test: 3D spheroid cell viability assay; type: cell-based; details: Homo sapiens, HCT-116, 72 h, 3D spheroids, CellTiter-Glo 3D, 72-h treatment; read-out: IC50 HCT 116 p53-/- (3D model)
Method: as §1, §2

AsPC-1 spheroids = test: 3D spheroid cell viability assay; type: cell-based; details: Homo sapiens, ASPC1; 3D spheroids, CellTiter-Glo 3D, 72-h treatment; read-out: IC50 AsPC-1 (3D model)
Method: as §1, §2

Fas = test: Western blot, Fas protein level; type: cell-based, human
Method: The cells (500,000) were seeded in 35 mm Petri dishes (Nunc) and incubated in a solution of the tested compound (0.5 µM and 1 µM) for 24 h and 48 h. The cells were then dissociated using trypsin, collected in Eppendorf tubes, and centrifuged at 2,000 rpm. Next, cell pellets were resuspended in complete RIPA buffer containing a Halt Protease Inhibitor Cocktail and Halt Phosphatase Inhibitor Cocktail along with 0.5 M EDTA (all reagents from Thermo Fisher Scientific) and lysed on ice for 20 min. Afterward, the lysates were sonicated and centrifuged at 10,000 rpm for 10 min at 4 °C. The obtained supernatants were collected for further analysis. The protein concentration was determined using a Micro BCA™ Protein Assay Kit (Thermo Fisher Scientific) according to the manufacturer’s procedure. Equal amounts of proteins (16 µg) were electrophoresed on SDS-Page gels and transferred onto nitrocellulose membranes. Novex Sharp Pre-Stained Protein Standard (Thermo Fisher Scientific) was used as a colored molecular weight marker. The membranes were blocked in 5% non-fat milk prepared in TPBS (PBS supplemented by 0.1% Tween-20) for 1 h. After blocking, the membranes were cut, and then incubated with specific primary monoclonal antibodies (all purchased from Cell Signaling) overnight at 4 °C. […]

O=[N+]([O-])c1ccc(/C=C/c2ccnc3ccccc23)o1 [Compound 13]
IC50 (PANC-1 spheroids): 2160 ± 370 nM
IC50 (U-251 spheroids): 340 ± 70 nM
IC50 (HCT 116 p53-/- spheroids): ~1000 nM
IC50 (AsPC-1 spheroids): 4180 ± 1000 nM
Fas protein level vs control (Fas; HCT 116 p53+/+, 24-h): more than three-fold increase
Fas protein expression vs untreated cells (Fas; HCT 116 p53-/-, 48-h): four times higher

Reference: PMC11574108, “4-Furanylvinylquinoline derivative as a new scaffold for the design of oxidative stress initiator and glucose transporter inhibitor drugs” (Scientific Reports, 2024)
